Reference: ChEMBL document CHEMBL1153106, “Thyroid receptor agonists for the treatment of androgenetic alopecia” (Bioorg Med Chem Lett, 2010)
Active and inactive are the calls of the source. The rule behind the calls is not given here.

Legend:
[1] = Intrinsic clearance in human; assay type: ADME, organism-based; details: not recorded
[2] = Terminal half life in rat at 0.5 mg/kg, iv; assay type: ADME, organism-based; design: dose 0.5 mg/kg, route intravenous; details: in vivo, read-out: beta t1/2 (converted)
[3] = Drug level in bald stump-tailed monkey model after 4 months; assay type: ADME, organism-based; details: macaca arctoides, in vivo; read-out: Drug uptake
[4] = Plasma clearance in rat at 0.5 mg/kg, iv; assay type: ADME, organism-based; design: dose 0.5 mg/kg, route intravenous
[5] = Clearance in human blood; assay type: ADME, organism-based
Zone of skin [6] = assay: Effect on transepidermal penetration in human cadaver skin assessed as drug distributed to epidermis after 40 hrs using Franz diffusion chamber; assay type: functional
Mus musculus [7] = assay: Ratio of drug to minoxidil MED for hair growth stimulatory activity in female C3H/HeN mouse at 1 mg/mL, treated topically to shaved lower back as single dose; assay type: functional, organism-based
Zone of skin [8] = assay: Effect on transepidermal penetration in human cadaver skin assessed as drug distributed to dermis after 40 hrs using Franz diffusion chamber; assay type: functional
Zone of skin [9] = assay: Effect on transepidermal penetration in human cadaver skin assessed as maximal penetration rate after 28 hrs using Franz diffusion chamber; assay type: functional
Mus musculus [10] = assay: Hair growth stimulatory activity in C3H/HeN mouse treated 5 days a week topically to shaved lower back twice daily for 4 weeks; assay type: functional
[11] = Half life in human hepatocytes; assay type: ADME, cell-based, Liver, Hepatocyte
[12] = Drug level in bald stump-tailed monkey model after 3 months; assay type: ADME, organism-based; details: macaca arctoides, in vivo; read-out: Drug uptake
[13] = Toxicity in bald stump-tailed monkey skin after 4 months; assay type: tissue-based, Zone of skin; details: macaca arctoides, in vivo, 2922 h
Macaca arctoides = organism: Macaca arctoides; assay: Hair growth stimulatory activity in bal stump-tailed monkey model; assay type: functional
Zone of skin [14] = assay: Effect on transepidermal penetration in human cadaver skin assessed as total penetration after 40 hrs using Franz diffusion chamber; assay type: functional
[15] = molecular target: T1, Thyroid hormone receptor alpha (Homo sapiens, UniProt P10827); assay: Binding affinity to thyroid receptor alpha
T1 sequence (P10827 whole entry): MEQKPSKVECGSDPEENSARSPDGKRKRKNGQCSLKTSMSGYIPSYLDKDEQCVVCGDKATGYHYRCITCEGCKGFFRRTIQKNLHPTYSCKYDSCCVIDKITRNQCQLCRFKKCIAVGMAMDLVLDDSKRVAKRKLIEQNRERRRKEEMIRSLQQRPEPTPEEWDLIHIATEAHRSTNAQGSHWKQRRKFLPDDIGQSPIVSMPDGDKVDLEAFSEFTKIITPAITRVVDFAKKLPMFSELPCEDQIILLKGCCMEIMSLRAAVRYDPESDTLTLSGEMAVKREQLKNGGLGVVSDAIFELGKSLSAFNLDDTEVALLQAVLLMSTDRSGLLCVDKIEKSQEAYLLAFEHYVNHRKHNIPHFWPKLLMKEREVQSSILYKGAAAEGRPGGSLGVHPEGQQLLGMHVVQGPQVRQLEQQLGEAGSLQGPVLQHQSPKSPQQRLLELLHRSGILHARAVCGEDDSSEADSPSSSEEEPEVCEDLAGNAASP

[16] = Metabolic stability in […] human liver microsomes; assay type: ADME, Microsome
Mus musculus [17] = assay: Ratio of drug to minoxidil MED for hair growth stimulatory activity in female C3H/HeN mouse at 0.1 mg/mL, treated topically to shaved lower back as single dose; assay type: functional, organism-based
[18] = Drug level in bald stump-tailed monkey model after 2 months; assay type: ADME, organism-based; details: macaca arctoides, in vivo; read-out: Drug uptake
Thyroid hormone receptor = molecular target: T2, Thyroid hormone receptor (Homo sapiens, UniProt P10827+P10828); assay: Binding affinity to thyroid hormone receptor in human HepG2 cells
T2 sequence (P10827 whole entry): T1 sequence (P10827 whole entry)
T2 sequence (P10828 whole entry): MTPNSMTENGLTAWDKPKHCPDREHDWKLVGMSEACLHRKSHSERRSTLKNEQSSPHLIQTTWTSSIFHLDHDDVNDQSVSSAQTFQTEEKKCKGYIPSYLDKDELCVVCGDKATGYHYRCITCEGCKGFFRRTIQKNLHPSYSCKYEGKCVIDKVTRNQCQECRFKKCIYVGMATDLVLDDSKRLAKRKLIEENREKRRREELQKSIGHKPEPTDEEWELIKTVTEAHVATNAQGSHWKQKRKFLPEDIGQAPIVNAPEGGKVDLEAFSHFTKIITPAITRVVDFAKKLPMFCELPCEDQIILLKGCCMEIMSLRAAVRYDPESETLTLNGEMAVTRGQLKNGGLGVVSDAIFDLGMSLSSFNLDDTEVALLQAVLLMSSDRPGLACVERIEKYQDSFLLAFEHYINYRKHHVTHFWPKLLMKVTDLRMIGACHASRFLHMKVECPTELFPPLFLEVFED

[19] = Clearance in rat blood; assay type: ADME, organism-based
Rattus norvegicus = assay: Apparent volume of distribution at steady state in rat at 0.5 mg/kg, iv; assay type: ADME, organism-based; design: dose 0.5 mg/kg, route intravenous; details: in vivo
[20] = Intrinsic clearance in rat; assay type: ADME, organism-based; details: not recorded
[21] = molecular target: T3, Thyroid hormone receptor beta (Homo sapiens, UniProt P10828); assay: Binding affinity to thyroid receptor beta
T3 sequence (P10828 whole entry): T2 sequence (P10828 whole entry)

[22] = Half life in rat hepatocytes; assay type: ADME, cell-based, Liver, Hepatocyte
[23] = Metabolic stability in rat liver microsomes; assay type: ADME, Microsome
NIH3T3 = assay: Phototoxicity in mouse 3T3 cells by neutral red uptake assay; assay type: cell-based

Cc1cc(-n2ncc(=O)[nH]c2=O)cc(C)c1Oc1ccc(O)c(Cc2ccc(F)cc2)c1 gave a CLint scaled [1] of 29 mL/min/kg, a half-life [2] of 164 min and a concentration at 2922 h [3] of less than 1 ng/mL. For the same molecule, the clearance [4] was 40 mL/min/kg, the clearance [5] was 15 mL/min/kg and the Activity (Zone of skin [6]) was 9.88%. For the same molecule, the Activity (Mus musculus [7]) was “Active”, the Activity (Zone of skin [8]) was 0.58% and the Activity (Zone of skin [9]) was 0.14 microg/cm2/h. For the same molecule, the MED (Mus musculus [10]) was 0.003%, the half-life [11] was 119 min and the concentration at 2191.5 h [12] was less than 1 ng/mL. For the same molecule, the Activity [13] was “Non-toxic”, the MED (Macaca arctoides) was 0.1% and the Activity (Zone of skin [14]) was 6.17%. The Ki [15] was 3 nM, the half-life [16] was 39 min and the Activity (Mus musculus [17]) was “Active”. For the same molecule, the concentration at 1461 h [18] was less than 2 ng/mL, the EC50 (Thyroid hormone receptor) was 0.5 nM and the clearance [19] was 51 mL/min/kg. It also gave a Vdss(app) (Rattus norvegicus) of 4.88 L/kg, a CLint scaled [20] of 149 mL/min/kg and a Ki [21] of 0.4 nM. For the same molecule, the half-life [22] was 45 min, the half-life [23] was 40 min and the Activity (NIH3T3) was “Non-toxic”.

With O=C(c1cc(Oc2c(Cl)cc(-n3ncc(=O)[nH]c3=O)cc2Cl)ccc1O)N1CCc2ccccc2C1 the MED (Mus musculus [10]) was 0.1%, the Ki [15] was 126 nM and the Ki [21] was 2 nM.

O=c1cnn(-c2cc(Cl)c(Oc3ccc(O)c(Cc4ccc(F)cc4)c3)c(Cl)c2)c(=O)[nH]1 gave an MED (Mus musculus [10]) of 0.01%, a Ki [15] of 8 nM and a Ki [21] of 0.51 nM.

In the case of Nc1cc(N2CCCCC2)nc(N)[n+]1[O-] [MINOXIDIL], the MED (Mus musculus [10]) is reported as 2.5% and the MED (Macaca arctoides) is reported as 2%.

Molecule Cc1cc(NC(=O)C(=O)O)cc(C)c1Oc1ccc(O)c2c1CCC2 has an MED (Mus musculus [10]) of 1%, a Ki [15] of 0.7 nM and a Ki [21] of 0.5 nM.

Work on O=C(c1cc(Oc2c(Cl)cc(-n3ncc(=O)[nH]c3=O)cc2Cl)ccc1O)N1CCCCC1 yielded an MED (Mus musculus [10]) of 0.1%, a Ki [15] of 20 nM and a Ki [21] of 1 nM.

Work on Cc1cc(NC(=O)CC(=O)O)cc(Cl)c1Oc1ccc(O)c(S(=O)(=O)CC2CCC2)c1 yielded an MED (Mus musculus [10]) of 0.1%, a Ki [15] of 2.1 nM and a Ki [21] of 0.5 nM.
